{
  "source": "ChEMBL document CHEMBL1201862",
  "about": "“PubChem BioAssay data set” (2004)",
  "key": {"[1]": {"target": "Intestinal-type alkaline phosphatase (Homo sapiens, UniProt P09923)", "sequence (P09923 whole entry)": "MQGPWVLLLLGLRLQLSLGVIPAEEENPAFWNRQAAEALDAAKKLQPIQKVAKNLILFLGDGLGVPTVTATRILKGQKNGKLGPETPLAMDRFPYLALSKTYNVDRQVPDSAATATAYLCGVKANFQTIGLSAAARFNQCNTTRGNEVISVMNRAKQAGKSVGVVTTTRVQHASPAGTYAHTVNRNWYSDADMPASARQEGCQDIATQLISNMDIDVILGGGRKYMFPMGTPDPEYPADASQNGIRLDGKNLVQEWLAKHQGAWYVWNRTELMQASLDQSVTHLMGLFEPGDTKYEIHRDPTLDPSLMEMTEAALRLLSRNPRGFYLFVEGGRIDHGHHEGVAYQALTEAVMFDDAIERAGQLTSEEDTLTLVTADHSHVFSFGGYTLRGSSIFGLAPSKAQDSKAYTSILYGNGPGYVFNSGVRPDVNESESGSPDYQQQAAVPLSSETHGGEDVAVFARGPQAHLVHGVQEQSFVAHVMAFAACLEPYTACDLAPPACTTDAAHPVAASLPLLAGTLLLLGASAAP", "experiment": "human intestinal alkaline phosphatase activators, dose response, biochemical, luminescence, uHTS hits (AID 463120)", "format": "functional"}, "[2]": {"target": "T1, Alkaline phosphatase, tissue-nonspecific isozyme (Homo sapiens, UniProt P05186)", "T1 sequence (P05186 whole entry)": "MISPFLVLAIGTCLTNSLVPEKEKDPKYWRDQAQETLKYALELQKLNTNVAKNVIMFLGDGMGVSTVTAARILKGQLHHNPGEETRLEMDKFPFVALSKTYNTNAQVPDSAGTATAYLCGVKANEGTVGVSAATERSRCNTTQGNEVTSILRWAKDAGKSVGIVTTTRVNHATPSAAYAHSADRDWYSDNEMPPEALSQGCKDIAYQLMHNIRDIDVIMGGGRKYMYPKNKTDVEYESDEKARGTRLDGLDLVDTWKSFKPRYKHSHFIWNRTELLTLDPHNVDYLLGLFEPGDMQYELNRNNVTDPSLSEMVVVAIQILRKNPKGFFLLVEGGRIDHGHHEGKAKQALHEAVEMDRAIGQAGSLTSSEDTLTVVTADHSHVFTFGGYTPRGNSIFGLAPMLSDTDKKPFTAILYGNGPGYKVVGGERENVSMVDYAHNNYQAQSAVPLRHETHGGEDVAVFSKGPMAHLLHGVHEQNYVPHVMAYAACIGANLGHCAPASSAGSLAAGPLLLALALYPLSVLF", "experiment": "potency against alkaline phosphatase TNAP – biochemical, luminescent, dose response, SAR follow-up (AID 1056)"}, "[3]": {"target": "Glyceraldehyde-3-phosphate dehydrogenase (Homo sapiens, UniProt P04406)", "sequence (P04406 whole entry)": "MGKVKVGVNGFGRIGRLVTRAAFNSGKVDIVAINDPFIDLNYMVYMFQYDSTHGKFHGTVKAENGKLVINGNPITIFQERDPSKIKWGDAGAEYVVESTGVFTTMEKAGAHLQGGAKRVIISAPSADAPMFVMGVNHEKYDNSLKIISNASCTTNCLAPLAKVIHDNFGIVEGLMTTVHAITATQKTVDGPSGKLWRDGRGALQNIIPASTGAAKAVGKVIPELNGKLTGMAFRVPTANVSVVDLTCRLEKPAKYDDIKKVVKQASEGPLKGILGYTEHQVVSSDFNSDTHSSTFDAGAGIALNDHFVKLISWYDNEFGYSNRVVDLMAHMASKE"}, "cells [4]": {"experiment": "cells", "format": "functional, cell-based"}, "[5]": {"target": "T2, Short transient receptor potential channel 4 (Mus musculus, UniProt Q9QUQ5)", "T2 sequence (Q9QUQ5 whole entry)": "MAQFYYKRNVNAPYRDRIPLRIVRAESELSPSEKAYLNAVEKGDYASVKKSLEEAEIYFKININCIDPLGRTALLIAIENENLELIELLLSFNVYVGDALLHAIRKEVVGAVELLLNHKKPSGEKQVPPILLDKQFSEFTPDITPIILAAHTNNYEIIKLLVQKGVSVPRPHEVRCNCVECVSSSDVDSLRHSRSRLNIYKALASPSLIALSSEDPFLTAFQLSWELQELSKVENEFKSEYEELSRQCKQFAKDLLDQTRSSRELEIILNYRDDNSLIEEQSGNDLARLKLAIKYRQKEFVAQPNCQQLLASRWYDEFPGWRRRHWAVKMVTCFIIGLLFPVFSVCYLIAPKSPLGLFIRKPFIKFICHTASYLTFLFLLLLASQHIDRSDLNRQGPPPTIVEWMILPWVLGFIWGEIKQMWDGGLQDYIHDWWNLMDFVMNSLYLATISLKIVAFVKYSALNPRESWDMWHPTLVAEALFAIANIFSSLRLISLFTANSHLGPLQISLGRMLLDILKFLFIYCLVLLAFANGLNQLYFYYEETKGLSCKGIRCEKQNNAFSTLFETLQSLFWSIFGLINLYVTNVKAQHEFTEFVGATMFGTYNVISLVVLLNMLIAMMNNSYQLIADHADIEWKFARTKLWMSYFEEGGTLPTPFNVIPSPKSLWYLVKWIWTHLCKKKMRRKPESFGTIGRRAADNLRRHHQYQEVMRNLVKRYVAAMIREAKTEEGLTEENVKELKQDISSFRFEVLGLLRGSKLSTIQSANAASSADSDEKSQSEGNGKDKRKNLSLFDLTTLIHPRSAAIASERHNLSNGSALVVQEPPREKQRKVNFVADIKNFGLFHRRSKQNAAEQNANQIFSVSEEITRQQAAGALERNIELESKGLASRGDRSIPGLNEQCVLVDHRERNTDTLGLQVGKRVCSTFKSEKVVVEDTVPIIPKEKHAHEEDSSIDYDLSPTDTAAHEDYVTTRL", "experiment": "calcium entry via TRPC4 opening agents – cell-based, HEK293 TRPC4/mu-opioid, Fluo-4 calcium, dose response (AID 434937)", "format": "functional"}, "cells [6]": {"experiment": "cells", "format": "functional, cell-based", "remark": "listed apart in the source"}, "[7]": {"target": "T3, Lysine-specific demethylase 4C (Homo sapiens, UniProt Q9H3R0)", "T3 sequence (Q9H3R0 whole entry)": "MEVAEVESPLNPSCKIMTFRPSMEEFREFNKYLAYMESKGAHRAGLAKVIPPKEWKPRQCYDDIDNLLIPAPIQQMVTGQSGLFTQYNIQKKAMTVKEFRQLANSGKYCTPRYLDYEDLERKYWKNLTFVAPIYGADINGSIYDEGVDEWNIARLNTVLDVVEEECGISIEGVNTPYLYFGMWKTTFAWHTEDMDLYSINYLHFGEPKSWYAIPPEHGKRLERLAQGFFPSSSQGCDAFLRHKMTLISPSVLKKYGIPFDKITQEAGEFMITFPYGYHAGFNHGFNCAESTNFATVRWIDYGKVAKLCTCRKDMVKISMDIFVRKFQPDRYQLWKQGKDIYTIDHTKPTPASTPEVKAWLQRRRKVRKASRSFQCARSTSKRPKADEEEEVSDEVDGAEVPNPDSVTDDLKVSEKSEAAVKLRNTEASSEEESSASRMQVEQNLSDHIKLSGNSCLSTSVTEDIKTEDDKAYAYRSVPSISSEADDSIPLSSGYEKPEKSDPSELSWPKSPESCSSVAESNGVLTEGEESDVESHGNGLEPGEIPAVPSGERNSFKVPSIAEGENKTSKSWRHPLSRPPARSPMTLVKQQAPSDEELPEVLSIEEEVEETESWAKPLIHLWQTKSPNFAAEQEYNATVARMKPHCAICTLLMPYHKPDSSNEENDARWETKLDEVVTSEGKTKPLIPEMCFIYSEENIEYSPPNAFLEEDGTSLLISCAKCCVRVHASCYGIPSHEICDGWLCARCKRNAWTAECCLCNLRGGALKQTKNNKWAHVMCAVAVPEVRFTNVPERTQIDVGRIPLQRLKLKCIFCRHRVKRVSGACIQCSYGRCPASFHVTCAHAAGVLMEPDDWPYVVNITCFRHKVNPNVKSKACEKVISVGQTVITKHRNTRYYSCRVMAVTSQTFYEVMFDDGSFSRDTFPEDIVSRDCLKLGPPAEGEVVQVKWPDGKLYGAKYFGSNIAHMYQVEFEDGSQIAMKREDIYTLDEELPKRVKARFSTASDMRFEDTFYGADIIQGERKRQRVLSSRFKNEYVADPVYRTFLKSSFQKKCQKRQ", "experiment": "inhibition of JMJD2C H3K9me3 demethylation – biochemical, DELFIA europium, cherry-picked samples, dose response (AID 488835)", "format": "functional"}, "X-box-binding protein 1": {"target": "T4, X-box-binding protein 1 (Homo sapiens, UniProt P17861)", "T4 sequence (P17861 whole entry)": "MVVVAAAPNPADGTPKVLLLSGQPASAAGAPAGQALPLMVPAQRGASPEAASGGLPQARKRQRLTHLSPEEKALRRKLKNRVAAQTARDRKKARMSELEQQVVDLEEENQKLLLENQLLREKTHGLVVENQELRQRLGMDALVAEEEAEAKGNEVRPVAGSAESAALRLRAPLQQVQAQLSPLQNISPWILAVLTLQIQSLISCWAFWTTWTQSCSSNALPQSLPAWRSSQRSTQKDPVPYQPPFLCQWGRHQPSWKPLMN", "format": "functional, Cricetulus griseus"}, "[8]": {"experiment": "non-specific 3'UTR reporter inhibition in Clone20-Shn3RL – cell-based, Renilla luciferase, cherry-picked, counter-screen for Shn3 inhibitor project, dose response (AID 624133)", "format": "functional"}, "[9]": {"experiment": "Luminescence Cell-Based Dose Retest to Confirm Inhibitors of Cancer Stem Cells. [Related pubchem assays (depositor defined):AID2717, AID2721]", "format": "functional", "conditions": "Homo sapiens"}, "[10]": {"experiment": "viability of PTEN-deleted HCT116 cells – cell-based, HCT116 PTEN knockout, dose response (AID 1047);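 also: HCT116 colon tumor cells with PTEN knocked out; cells exposed to compound for 60 hours before readout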", "format": "functional"}, "[11]": {"experiment": "reduction of Shn3 3'UTR-driven luciferase in osteoblasts – cell-based, Clone20 osteoblasts, firefly luciferase, cherry-picked, dose response (AID 624132)", "format": "functional"}, "[12]": {"target": "T5, Microphthalmia-associated transcription factor (Homo sapiens, UniProt O75030)", "T5 sequence (O75030 whole entry)": "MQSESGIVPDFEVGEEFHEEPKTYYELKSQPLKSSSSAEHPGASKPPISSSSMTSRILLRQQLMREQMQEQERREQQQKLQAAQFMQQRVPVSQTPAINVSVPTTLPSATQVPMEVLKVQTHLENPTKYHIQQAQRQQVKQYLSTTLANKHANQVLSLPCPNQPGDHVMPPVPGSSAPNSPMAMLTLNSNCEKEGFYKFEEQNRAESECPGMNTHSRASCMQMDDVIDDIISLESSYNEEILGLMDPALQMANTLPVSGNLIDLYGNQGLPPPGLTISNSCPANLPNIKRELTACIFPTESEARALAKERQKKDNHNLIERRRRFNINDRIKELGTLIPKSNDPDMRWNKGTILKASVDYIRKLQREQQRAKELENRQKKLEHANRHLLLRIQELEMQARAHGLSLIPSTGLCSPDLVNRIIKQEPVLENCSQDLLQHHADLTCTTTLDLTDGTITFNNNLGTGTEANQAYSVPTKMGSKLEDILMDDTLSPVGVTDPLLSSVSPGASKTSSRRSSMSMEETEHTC", "experiment": "reducers of TRPM1 reporter luminescence, concentration series – cell-based, SK-MEL-5, cherry-picked, set 3, MITF inhibitor project, dose response (AID 493073)", "format": "functional"}, "[13]": {"experiment": "viability of HCT116 lacking mutant beta-catenin – cell-based, human colon tumor, dose response (AID 1045);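 also: HCT116 colon tumor cells with beta catenin knocked out; cells exposed to compound for 60 hours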", "format": "functional"}, "[14]": {"experiment": "loss of viability in HepG2 cells – cell-based, CellTiter-Glo, cherry-picked, cytotoxicity control for Shn3 inhibitor project, dose response (AID 624134)", "format": "functional"}},
  "note": "Activity calls are given as the source filed them.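 For Absolute IC50 (XBP1) in this document: confirmatory dose-response counter-screen serving a CHOP assay.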",
  "data": [
    {"compound": "Cc1ccc(O)c(N/C=C/C(=O)c2ccc(F)cc2)c1", "values": [
      {"measurement": "EC50", "setting": "[1]", "value": "> 100 µM (inactive)"}
    ]},
    {"compound": "O=C1c2ccccc2C(=O)N1c1nnc(CCc2ccccc2)[nH]1", "values": [
      {"measurement": "IC50", "setting": "[2]", "value": "66.5 µM (active)"},
      {"measurement": "IC50", "setting": "[3]", "value": "> 100 µM (not active)"}
    ]},
    {"compound": "O=C(C1CCCN(Cc2ccccc2F)C1)N1CCc2ccccc2C1", "note": "(stereo unspecified)", "values": [
      {"measurement": "EC50", "setting": "cells [4]", "value": "> 350 µM (not active)"},
      {"measurement": "EC50", "setting": "[5]", "value": "0.299 µM (active)"},
      {"measurement": "EC50", "setting": "cells [6]", "value": "> 350 µM (not active)"}
    ]},
    {"compound": "Cc1cccc(N2C(=O)NC(=O)/C(=C\\c3cnc(-c4ccccc4)nc3)C2=O)c1", "values": [
      {"measurement": "AC50", "setting": "[7]", "value": "15.2 µM (active)"}
    ]},
    {"compound": "Cc1ccc(C(C(=O)NC2CCCCC2)N(C(=O)Cc2c[nH]c3ccccc23)c2ccccc2C)o1", "note": "(stereo unspecified)", "values": [
      {"measurement": "Absolute IC50 (XBP1)", "setting": "X-box-binding protein 1", "value": 10, "unit": "µM"}
    ]},
    {"compound": "CC(=O)OCCCNc1cc(Sc2ccc(Cl)cc2)c2nonc2c1[N+](=O)[O-]", "values": [
      {"measurement": "AC50", "setting": "[8]", "value": "7.64 µM (active)"},
      {"measurement": "AC50", "setting": "[9]", "value": "4.57 µM (active)"},
      {"measurement": "EC50", "setting": "[10]", "value": "13.1 µM (active)"},
      {"measurement": "Absolute IC50 (XBP1)", "setting": "X-box-binding protein 1", "value": 10, "unit": "µM"},
      {"measurement": "AC50", "setting": "[11]", "value": "1.14 µM (active)"},
      {"measurement": "AC50", "setting": "[12]", "value": "10.9 µM (active)"},
      {"measurement": "EC50", "setting": "[13]", "value": "11.3 µM (active)"},
      {"measurement": "AC50", "setting": "[14]", "value": "43.7 µM (active)"}
    ]}
  ]
}
